Reference: patent publication US5719151A, “Substituted benzene compounds” (priority 1990, dated 1998)

What was measured:
[1] = target: T1, poly(ADP-ribose)polymerase (Homo sapiens, UniProt P09874); assay: Determination of inhibitory effect on poly(ADP-ribose)polymerase (enzyme activity, Ki, Km); type: biochemical; conditions: for Ki: poly(ADP-ribose)polymerase, read-out: Ki (Inhibition Constant); for inhibition at 5 µM / inhibition at 1 µM / inhibition at 2.5 µM: read-out: Inhibitor Activity (%)
T1 sequence (P09874 whole entry): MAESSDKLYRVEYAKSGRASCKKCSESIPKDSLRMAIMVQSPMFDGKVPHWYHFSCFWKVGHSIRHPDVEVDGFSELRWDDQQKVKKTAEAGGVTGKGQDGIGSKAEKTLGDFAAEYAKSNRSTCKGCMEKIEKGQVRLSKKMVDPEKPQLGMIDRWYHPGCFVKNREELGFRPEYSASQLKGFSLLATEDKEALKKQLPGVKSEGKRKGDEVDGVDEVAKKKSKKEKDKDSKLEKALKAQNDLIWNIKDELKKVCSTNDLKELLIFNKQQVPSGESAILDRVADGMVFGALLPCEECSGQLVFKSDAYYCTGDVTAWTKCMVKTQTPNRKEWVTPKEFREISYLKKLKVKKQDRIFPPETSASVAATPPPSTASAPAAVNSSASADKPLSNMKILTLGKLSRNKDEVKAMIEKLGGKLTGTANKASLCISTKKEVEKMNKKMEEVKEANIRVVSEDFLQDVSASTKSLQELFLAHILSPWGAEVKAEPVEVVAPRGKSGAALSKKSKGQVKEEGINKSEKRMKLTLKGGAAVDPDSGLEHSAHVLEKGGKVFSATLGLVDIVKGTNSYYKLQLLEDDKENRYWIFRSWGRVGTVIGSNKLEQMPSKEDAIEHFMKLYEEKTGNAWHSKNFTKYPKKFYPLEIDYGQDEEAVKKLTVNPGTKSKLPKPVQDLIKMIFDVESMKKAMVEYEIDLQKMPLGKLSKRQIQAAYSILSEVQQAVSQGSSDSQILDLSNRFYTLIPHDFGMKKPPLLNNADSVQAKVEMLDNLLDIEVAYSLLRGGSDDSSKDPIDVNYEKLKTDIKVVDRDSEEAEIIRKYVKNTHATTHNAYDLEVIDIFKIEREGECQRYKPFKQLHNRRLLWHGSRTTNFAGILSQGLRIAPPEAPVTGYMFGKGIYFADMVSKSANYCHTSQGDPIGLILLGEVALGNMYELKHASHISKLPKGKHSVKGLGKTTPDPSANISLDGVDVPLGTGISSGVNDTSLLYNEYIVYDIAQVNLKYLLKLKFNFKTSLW
Protocol: The enzyme activity was assayed by standard procedures (Murray, B. et al., Mutation Research (1986) 165:191-198). This reference also describes the estimation of the Km (Michaelis Constant) values. The estimation of the Ki (inhibitory constant) values was performed by calculating the Km value in the presence or absence of known concentrations of the enzyme inhibitor. Standard biochemical calculations were then used to calculate the Ki value. The smaller K1 values indicate stronger inhibition. The degree of enzyme inhibition shown in the Table was estimated by measuring the enzyme activity in the presence and absence of the indicated concentrations of inhibitor.

[2] = test system: nuclear poly(ADP-Ribose)polymerase; conditions: Oikawa 1980; Lindahl-Kiessling & Shall 1987; cited from earlier work
[3] = target: T1, poly(ADP-ribose)polymerase; conditions: Farzeneh 1988, cited from earlier work
[4] = target: T1, poly(ADP-ribose)polymerase; assay: Formation of covalent compounds (with the enzyme); type: biochemical; conditions: for covalent compound with the enzyme: specific covalent inhibition
[5] = test system: Trypanosoma brucei rhodesiense; assay: Growth of Trypanosoma brucei rhodesiense in axenic culture (growth inhibition); type: cell-based
Protocol: 1. TRYPANOSOMES: Stabilates of two clones, GUP 2889 and GUP 2814 were used.
Prior to propagation in vitro cell free culture conditions the parasites from stabilates were expanded in CD1 (8-9 week old) female mice. Infected mouse blood obtained by cardiac puncture in EMEM* with 20 U/ml heparin was used for the preparation of blood smears for immunofluorescence analysis.
Antibody mediated lysis of a specific VAT of bloodstream form trypanosomes was performed by incubating an appropriate aliquot of a recently prepared trypanosome suspension at room temperature for 1 hour, in appropriately diluted specific antibody and guinea pig complement. The trypanosomes were observed and counted with inverted phase-contrast microscopy at a magnification of 150× to check for viability and to observe lysed trypanosomes, which appeared stumpy and vacuolated.
Cultures were initiated with aliquots of the above prepared trypanosome suspension. Duplicate T25 flasks, with 10 ml of medium were prepared for each experimental parameter examined. In each experiment the trypanosome density was determined at the initiation of the culture and at the end of the axenic culture period (usually after 18-24 hours) using a Neubaurer haemocytometer.
The instantaneous rate of switching/cell/generation, σi, has been calculated. These values of σ are estimates of the per capita rate for switching to minor VATs. However, these estimates have been made in populations manipulated to consist of a major VAT, the prevalence of which is much higher than that of minor VATs; switching from minor to major VATs has therefore been assumed to be negligible, as has interswitching between minor VATs. Growth rates, r, have been expressed as population doubling times Td, where Td=loge2/r. Switching rates values are presented in the tables as finite, of, rate estimates.
Two clones of Trypanosoma brucei rhodesiense, GUP 2889 and […] were initiated in culture with viable trypanosomes after in vitro trypanolysis of heterotype VAT 1.22 with GUPM 27.1 monoclonal antibody. Viable populations of these trypanosomes were incubated with various concentrations of the poly(ADP-Ribose)polymerase inhibitors. The effect of each concentration of inhibitor was tested in duplicate in T25 culture flasks set up for the axenic culture inhibition experiments. Growth was monitored after 24 hours of incubation at 37° C. in 4-5% CO2 in air. Relative growth inhibition and frequency of antigenic switching of were calculated.
In this assay a continuously growing bloodstream form trypanosome population was incubated in serial inhibitor dilutions in T25 culture flasks using an inoculum of 2×10^4 ·1×10^5 trypanosomes per ml. After an incubation period of 24-48 hours in axenic culture at 37° C. in a 4-5% CO2 incubator, trypanosomes were counted using a haemocytometer and growth inhibition was determined based on the number of generations (kt) of inhibitor treated cultures compared to controls. […] Growth is reduced by up to 17% when 3-N-formylluminol(3-N-FL) is present in the concentration range of 50-400 μM, Table 7.

[6] = target: T1, poly(ADP-ribose)polymerase; conditions: X-ray or bleomycin exposure; cited from earlier work
[7] = test system: NC(=O)c1ccc[n+]([C@@H]2O[C@H](COP(=O)([O-])OP(=O)(O)OC[C@H]3O[C@@H](n4cnc5c(N)ncnc54)[C@H](O)[C@@H]3O)[C@@H](O)[C@H]2O)c1; assay: Determination of inhibitory effect on poly(ADP-ribose)polymerase (enzyme activity, Ki, Km); type: biochemical; conditions: other: same assay as Table 5

Compound: CC(=O)Nc1cccc(C(N)=O)c1 [3-acetylaminobenzamide, reference compound]
- Ki [1]: 3200 ± 410 nM

Compound: NC(=O)c1cccc(N)c1 [3-aminobenzamide]
- spontaneous sister chromatid exchanges [2]: large increase in spontaneous sister chromatid exchanges

Compound: COc1cccc(C(N)=O)c1 [3-methoxybenzamide]
- integration of foreign DNA into the genome ([3]; non-homologous/illegitimate DNA recombination): blocked the integration of foreign DNA into the genome
- uptake and expression of foreign DNA ([3]; introduced via plasmids): not affected

Compound: CCC(=O)Nc1cccc(C(N)=O)c1 [3-propionylaminobenzamide, reference compound]
- Ki [1]: 2490 ± 300 nM

Compound: C=CC(=O)Nc1cccc(C(N)=O)c1 [Compound 4, 3-propenoylaminobenzamide]
- covalent compound with the enzyme [4]: act by forming a covalent compound with the enzyme specifically and thus inhibit the enzyme

Compound: NC(=O)c1cccc(NC(=O)CCCl)c1 [Compound 7]
- covalent compound with the enzyme [4]: act by forming a covalent compound with the enzyme specifically and thus inhibit the enzyme

Compound: NC(=O)Nc1cccc(C(N)=O)c1 [Compound 8, 3-ureidobenzamide]
- inhibition at 5 µM [1]: 61%

Compound: CNC(=O)Nc1cccc(C(N)=O)c1 [Compound 9, 3-methylureidobenzamide]
- inhibition at 5 µM [1]: 61%

Compound: C=CC(=O)Nc1cccc(C(=O)O)c1 [Compound 12, 3-propenoylaminobenzoic acid]
- enzyme inhibition (in words) [1]: not enzyme inhibitors
- ability to form covalent compounds [4]: form covalent compounds

Compound: NC(=O)c1cccc(NC(=O)CCl)c1 [Compound 14, 3-chloroacetylaminobenzamide]
- covalent compound with the enzyme [4]: act by forming a covalent compound with the enzyme specifically and thus inhibit the enzyme

Compound: NC(=O)c1cccc(NC(=O)CBr)c1 [Compound 15, 3-bromoacetylaminobenzamide]
- covalent compound with the enzyme [4]: act by forming a covalent compound with the enzyme specifically and thus inhibit the enzyme

Compound: NC(=O)c1cccc(NC(=O)CCBr)c1 [Compound 16]
- covalent compound with the enzyme [4]: act by forming a covalent compound with the enzyme specifically and thus inhibit the enzyme

Compound: CN(N=O)C(=O)Nc1cccc(C(N)=O)c1 [Compound 19, 3(N-methyl,N-nitroso ureido)benzamide]
- covalent compound with the enzyme [4]: act by forming a covalent compound with the enzyme specifically and thus inhibit the enzyme

Compound: CN(N=O)C(=O)Nc1ccc(C(N)=O)cc1 [Compound 20, 4(N-methyl,N-nitroso ureido)benzamide]
- enzyme inhibition (in words) [1]: not enzyme inhibitors
- ability to form covalent compounds [4]: form covalent compounds

Compound: CCOC(=O)c1cccc(NC(=O)N(C)N=O)c1 [Compound 21, Ethyl,3-(N-methyl,N-nitrosoureido)benzoate]
- enzyme inhibition (in words) [1]: not enzyme inhibitors
- ability to form covalent compounds [4]: form covalent compounds

Compound: O=CNc1cccc2c(=O)[nH][nH]c(=O)c12 [Compound 22, 5-formylamino-2,3-dihydro-1,4-phthalazinedione]
- inhibition at 1 µM [1]: 54%
- inhibition at 2.5 µM [1]: 71%
- Ki [1]: 518 ± 40 nM
- growth reduced by up to ([5]; 50-400 μM): up to 17%
- activity at 50 µM ([5]; Trypanosoma brucei, RHODESIENSE, 50 μM, n = 8, control 1.00, read-out: Relative Growth Rate (S.D., n)): 121 ± 13%
- activity at 100 µM ([5]; Trypanosoma brucei, RHODESIENSE, 100 μM, n = 8, control 1.00, read-out: Relative Growth Rate (S.D., n)): 91 ± 22%
- activity at 250 µM ([5]; Trypanosoma brucei, RHODESIENSE, 250 μM, n = 8, control 1.00, read-out: Relative Growth Rate (S.D., n)): 83 ± 42%
- activity at 400 µM ([5]; Trypanosoma brucei, RHODESIENSE, 400 μM, n = 4, control 1.00, read-out: Relative Growth Rate (S.D., n)): 85 ± 4%

Compound: N=C(N)Nc1cccc(C(N)=O)c1 [Compound 26, 3-(guanidino)benzamide]
- inhibition at 5 µM [1]: 32%

Compound: O=c1[nH]nc(O)c2cccc(O)c12 [Compound 27, 1,5-dihydroxy-3-hydro-4-phthalazinone]
- inhibition at 1 µM [1]: 47%
- inhibition at 2.5 µM [1]: 71%
- inhibition at 5 µM [1]: 82%

Compound: NC(=O)c1cccnc1 [nicotinamide]
- recovery of the damaged cells [6]: inhibit recovery of the damaged cells

Compound: poly(ADP-ribose)polymerase (Homo sapiens)
- Km [7]: 100 ± 13.7 µM
